Earlier results as cited in US20180193305A1, “CROMOLYN COMPOSITIONS FOR TREATMENT OF CHRONIC COUGH DUE TO IDIOPATHIC PULMONARY FIBROSIS” (Patara Pharma, LLC, priority 2016, published 2018).
Like-named read-outs stand apart in the source and are kept apart here.

Settings: in vivo

Oral bioavailability: ~1% | Oral bioavailability (listed as cromolyn): about 1%
Structure (SMILES): O=C(O)c1cc(=O)c2c(OCC(O)COc3cccc4oc(C(=O)O)cc(=O)c34)cccc2o1 [cromolyn sodium, disodium 5,5′-(2-hydroxypropane-1,3-diyl)bis(oxy)bis(4-oxo-4H-chromene-2-carboxylate)]
